Assay results from patent US10961222B2, “Chemical compound of isocitrate dehydrogenase inhibitor, and application thereof” (NANJING SANHOME PHARMACEUTICAL CO., LTD., priority 2016, dated 2021).

Target: T1, IDH2-R140Q mutant enzyme (Homo sapiens, UniProt P48735, R140Q)
T1 construct: purchased BPS 71100-1
T1 sequence (P48735 40-452 R140Q): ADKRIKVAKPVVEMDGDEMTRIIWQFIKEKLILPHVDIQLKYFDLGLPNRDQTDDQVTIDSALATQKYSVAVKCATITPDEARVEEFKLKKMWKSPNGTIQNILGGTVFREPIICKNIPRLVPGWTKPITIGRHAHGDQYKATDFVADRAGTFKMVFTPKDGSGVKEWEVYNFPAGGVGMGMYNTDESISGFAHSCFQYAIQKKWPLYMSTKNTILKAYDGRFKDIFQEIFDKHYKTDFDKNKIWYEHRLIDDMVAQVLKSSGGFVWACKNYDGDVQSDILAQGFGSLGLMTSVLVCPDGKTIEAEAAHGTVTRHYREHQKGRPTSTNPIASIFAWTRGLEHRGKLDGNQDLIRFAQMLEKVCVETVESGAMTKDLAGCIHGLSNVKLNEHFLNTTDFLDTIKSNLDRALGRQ
Assay: Inhibitory activity of compounds on IDH2-R140Q enzyme in vitro (diaphorase/resazurin fluorescence)
Type: biochemical
Details: IDH2-R140Q, pre-incubated 16 h with enzyme and NADPH, reaction 1 h with α-ketoglutarate; read-out: R140Q IC50
Description: Instrument: SpectraMax M3 Multi-Mode Microplate Reader, purchased from Molecular Devices.
In a 96-well plate, 40 μL of reaction buffer containing 2× enzyme (IDH2-WT or IDH2-R140Q) and cofactor (NADP or NADPH) was added to each well of the compound group and the DMSO control group, and 40 μL of reaction buffer containing 2× cofactor (NADP or NADPH) was added to each well of the enzyme-free control group.
20 μL of reaction buffer containing 4× compound to be tested was added to each well of the compound group. The compound was pre-formulated into 200× mother liquor with 100% DMSO; in the final reaction system, the concentration of DMSO was 0.5%. 20 μL of reaction buffer containing DMSO was added to each well of the DMSO control group; in the final reaction system, the concentration of DMSO was 0.5%.
The compound was mixed well with the enzyme and cofactor, and pre-incubated at room temperature for 16 h;
20 μL of reaction buffer containing 4× reaction substrate was added to each well. After mixed uniformly, the mixture was reacted at room temperature for 1 h.
3× termination and detection solution (it was prepared with reaction buffer, the final concentration of Diaphorase was 0.015 mg/mL, and the final concentration of Resazurin was 0.03 mM) was prepared. 40 μL of 3× termination and detection solution was added to each well of the enzyme reaction system. After mixed uniformly, the mixture was incubated at room temperature for 10 min;
Fluorescence values of two wells were obtained and averaged and the activity rate (Activity %) was calculated. The calculation formula: Activity %=(Measured data−Subtract background)/(DMSO Control−Subtract background)×100, wherein “Measured data” is fluorescence value of the compound in the pre-incubated wells, “Subtract background” is the fluorescence value of the enzyme-free control wells, and “DMSO Control” is the fluorescence value in the DMSO pre-incubated wells. Data was processed by GraphPad Prism v5.0 software and fitted to obtain IC50.

Row | SMILES | IC50 [nM]
1 | N#CC1CCCN(c2nc(Nc3ccnc(C(F)(F)F)c3)nc(-c3cccc(C(F)(F)F)n3)n2)C1 (stereo not drawn) [Example 12, 4-(3-Cyanopiperidin-1-yl)-6-(6-(trifluoromethyl)pyridin-2-yl)-N-(2-(trifluoromethyl)pyridin-4-yl)-1,3,5-triazin-2-amine] | 25
2 | FC1(F)CCC(c2nc(Nc3ccnc(C(F)(F)F)c3)nc(-c3cccc(C(F)(F)F)n3)n2)CC1 [Example 26, 4-(4,4-Difluorocyclohexyl)-6-(6-(trifluoromethyl)pyridin-2-yl)-N-(2-(trifluoromethyl)pyridin-4-yl)-1,3,5-triazin-2-amine] | 21
3 | N#C[C@@H]1CCN(c2nc(Nc3ccnc(C(F)(F)F)c3)nc(-c3cccc(C(F)(F)F)n3)n2)C1 [Example 52, 4-((R)-3-cyanopyrrolidin-1-yl)-6-(6-(trifluoromethyl)pyridin-2-yl)-N-(2-(trifluoromethyl)pyridin-4-yl)-1,3,5-triazin-2-amine] | 23
4 | FC(F)(F)c1cc(Nc2nc(-c3cccc(C(F)(F)F)n3)nc(N3CCNCC3)n2)ccn1 [Example 5, 4-(Piperazin-1-yl)-6-(6-(trifluoromethyl)pyridin-2-yl)-N-(2-(trifluoromethyl)pyridin-4-yl)-1,3,5-triazin-2-amine] | 25
5 | OC1(C(F)(F)F)CCN(c2nc(Nc3ccnc(C(F)(F)F)c3)nc(-c3cccc(C(F)(F)F)n3)n2)CC1 [Example 21, 4-(4-Trifluoromethyl-4-hydroxypiperidin-1-yl)-6-(6-(trifluoromethyl)pyridin-2-yl)-N-(2-(trifluoromethyl)pyridin-4-yl)-1,3,5-triazin-2-amine] | 25
6 | OC1CCCN(c2nc(Nc3ccnc(C(F)(F)F)c3)nc(-c3cccc(C(F)(F)F)n3)n2)C1 (stereo in doubt) [Example 9, 4-((R)-3-hydroxypiperidin-1-yl)-6-(6-(trifluoromethyl)pyridin-2-yl)-N-(2-(trifluoromethyl)pyridin-4-yl)-1,3,5-triazin-2-amine] | 22
7 | FC(F)(F)c1cc(Nc2nc(-c3cccc(C(F)(F)F)n3)nc(N3CCCCC3)n2)ccn1 [Example 50, 4-(piperidin-1-yl)-6-(6-(trifluoromethyl)pyridin-2-yl)-N-(2-(trifluoromethyl)pyridin-4-yl)-1,3,5-triazin-2-amine] | 22
8 | O[C@@H]1CCN(c2nc(Nc3ccnc(C(F)(F)F)c3)nc(-c3cccc(C(F)(F)F)n3)n2)C1 [Example 17, 4-((R)-3-hydroxypyrrolidin-1-yl)-6-(6-(trifluoromethyl)pyridin-2-yl)-N-(2-(trifluoromethyl)pyridin-4-yl)-1,3,5-triazin-2-amine] | 23
9 | FC(F)(F)c1cc(Nc2nc(-c3cccc(C(F)(F)F)n3)nc(N3CCCC(C(F)(F)F)C3)n2)ccn1 (stereo not drawn) [Example 7, 4-(3-(Trifluoromethyl)piperidin-1-yl)-6-(6-(trifluoromethyl)pyridin-2-yl)-N-(2-(trifluoromethyl)pyridin-4-yl)-1,3,5-triazin-2-amine] | 20
10 | O[C@H]1CCN(c2nc(Nc3ccnc(C(F)(F)F)c3)nc(-c3cccc(C(F)(F)F)n3)n2)C1 [Example 18, 4-((S)-3-hydroxypyrrolidin-1-yl)-6-(6-(trifluoromethyl)pyridin-2-yl)-N-(2-(trifluoromethyl)pyridin-4-yl)-1,3,5-triazin-2-amine] | 26

These reach a lower IC50. Values come first.

Row | IC50 [nM] | SMILES
11 | 19 | O[C@H]1CCCN(c2nc(Nc3ccnc(C(F)(F)F)c3)nc(-c3cccc(C(F)(F)F)n3)n2)C1 [Example 10, 4-((S)-3-hydroxypiperidin-1-yl)-6-(6-(trifluoromethyl)pyridin-2-yl)-N-(2-(trifluoromethyl)pyridin-4-yl)-1,3,5-triazin-2-amine]
12 | 18 | O=S1(=O)CCN(c2nc(Nc3ccnc(C(F)(F)F)c3)nc(-c3cccc(C(F)(F)F)n3)n2)CN1 [Example 8]
13 | 18 | FC1(F)CCN(c2nc(Nc3ccnc(C(F)(F)F)c3)nc(-c3cccc(C(F)(F)F)n3)n2)C1 [Example 15, 4-(3,3-Difluoropyrrolidin-1-yl)-6-(6-(trifluoromethyl)pyridin-2-yl)-N-(2-(trifluoromethyl)pyridin-4-yl)-1,3,5-triazin-2-amine]
14 | 15 | FC(F)(F)c1cc(Nc2nc(-c3cccc(C(F)(F)F)n3)nc(C3CCCCN3)n2)ccn1 (stereo not drawn) [Example 13, 4-(Piperidin-2-yl)-6-(6-(trifluoromethyl)pyridin-2-yl)-N-(2-(trifluoromethyl)pyridin-4-yl)-1,3,5-triazin-2-amine]
15 | 14 | FC1CCN(c2nc(Nc3ccnc(C(F)(F)F)c3)nc(-c3cccc(C(F)(F)F)n3)n2)CC1 [Example 19, 4-(4-Fluoropiperidin-1-yl)-6-(6-(trifluoromethyl)pyridin-2-yl)-N-(2-(trifluoromethyl)pyridin-4-yl)-1,3,5-triazin-2-amine]
16 | 19 | CC(C)(O)C1CN(c2nc(Nc3ccnc(C(F)(F)F)c3)nc(-c3cccc(C(F)(F)F)n3)n2)C1 [Example 48, 4-(3-(2-propyl-2-ol)azetidin-1-yl)-6-(6-(trifluoromethyl)pyridin-2-yl)-N-(2-(trifluoromethyl)pyridin-4-yl)-1,3,5-triazin-2-amine]
17 | 14 | FC1CCCN(c2nc(Nc3ccnc(C(F)(F)F)c3)nc(-c3cccc(C(F)(F)F)n3)n2)C1 (stereo not drawn) [Example 11, 4-(3-Fluoropiperidin-1-yl)-6-(6-(trifluoromethyl)pyridin-2-yl)-N-(2-(trifluoromethyl)pyridin-4-yl)-1,3,5-triazin-2-amine]
18 | 15 | FC1(F)CC=C(c2nc(Nc3ccnc(C(F)(F)F)c3)nc(-c3cccc(C(F)(F)F)n3)n2)CC1 [Example 25, 4-(4,4-Difluorocyclohexyl-1-en-1-yl)-6-(6-(trifluoromethyl)pyridin-2-yl)-N-(2-(trifluoromethyl)pyridin-4-yl)-1,3,5-triazin-2-amine]
